Measurements published in PMC2858402 (Chemical biology & drug design, 2009).

The compounds below were run against Full-length DnaK (FL, flDnaK) (Escherichia coli, UniProt P0A6Y8) (assay: isothermal titration calorimetry).
Full-length DnaK (FL, flDnaK), sequence (P0A6Y8 2-638): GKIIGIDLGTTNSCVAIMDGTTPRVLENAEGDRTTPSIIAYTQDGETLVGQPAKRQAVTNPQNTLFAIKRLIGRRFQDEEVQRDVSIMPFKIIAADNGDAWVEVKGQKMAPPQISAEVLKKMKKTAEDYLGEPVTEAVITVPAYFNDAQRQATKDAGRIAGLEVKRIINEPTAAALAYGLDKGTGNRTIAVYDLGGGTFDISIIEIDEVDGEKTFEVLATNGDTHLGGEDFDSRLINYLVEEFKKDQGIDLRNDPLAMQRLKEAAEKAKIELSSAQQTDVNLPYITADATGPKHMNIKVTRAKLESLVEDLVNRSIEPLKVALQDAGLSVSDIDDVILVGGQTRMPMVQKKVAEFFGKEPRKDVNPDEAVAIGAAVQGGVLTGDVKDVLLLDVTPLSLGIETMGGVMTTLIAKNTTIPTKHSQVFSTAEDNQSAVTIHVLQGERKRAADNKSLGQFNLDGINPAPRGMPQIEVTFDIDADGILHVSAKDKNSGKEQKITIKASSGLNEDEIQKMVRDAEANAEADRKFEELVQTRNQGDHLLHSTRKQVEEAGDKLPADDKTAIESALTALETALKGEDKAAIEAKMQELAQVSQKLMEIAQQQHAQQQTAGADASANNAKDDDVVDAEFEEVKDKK
Assay type: binding
With `Nc1ncnc2c1ncn2[C@@H]1O[C@H](COP(=O)(O)OP(=O)(O)OP(=O)(O)O)[C@@H](O)[C@H]1O` [ATP] the Kd was 0.01 µM. For `O=C(NCc1cccc2ccccc12)c1cccs1` [D5, N-(naphthalen-1-ylmethyl)thiophene-2-carboxamide], the Kd was 1.7 µM. Work on `O=C(Nc1ccc2[nH]ccc2c1)c1cccs1` [D7, N-(1H-indol-5-yl)thiophene-2-carboxamide] yielded a Kd of 12.7 µM. For `O=C(NCc1cccc2ccsc12)c1cccs1` [D10, N-(benzo[b]thiophen-7-ylmethyl)thiophene-2-carboxamide], the Kd was 0.2 µM. With `O=C(NCc1ccc(Cl)c(Cl)c1)c1cccs1` [F6, N-(3,4-dichlorobenzyl)thiophene-2-carboxamide] the Kd was 7.3 ± 6.4 µM. Compound `O=C(NCc1c(Cl)cccc1Cl)c1cccs1` [F7, N-(2,6-dichlorobenzyl)thiophene-2-carboxamide] has a Kd of 1.5 µM. With `O=C(NCc1ccccc1O)c1cccs1` [F8, N-(2-hydroxybenzyl)thiophene-2-carboxamide] the Kd was 2.3 µM. With `O=C(NCc1cc(Cl)cc(Cl)c1)c1cccs1` [F9, N-(3,5-dichlorobenzyl)thiophene-2-carboxamide] the Kd was 2.8 µM. Work on `O=C(c1cccs1)N1CCN(CCO)CC1` [F10, (4-(2-hydroxyethyl)piperazin-1-yl)(thiophen-2-yl)methanone] yielded a Kd of 16.7 µM.

These compounds were tested against β-domain of DnaK (SBD), residues 393–507 (Escherichia coli, UniProt P0A6Y8) (assay: isothermal titration calorimetry).
β-domain of DnaK (SBD), residues 393–507, sequence (P0A6Y8 393-507): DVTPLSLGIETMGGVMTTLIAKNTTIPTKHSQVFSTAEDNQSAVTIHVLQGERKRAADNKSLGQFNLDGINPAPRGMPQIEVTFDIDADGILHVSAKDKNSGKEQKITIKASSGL
Assay type: binding
Work on `O=C(NCc1cccc2ccccc12)c1cccs1` [D5, N-(naphthalen-1-ylmethyl)thiophene-2-carboxamide] yielded a Kd of 1 µM. `O=C(Nc1ccc2[nH]ccc2c1)c1cccs1` [D7, N-(1H-indol-5-yl)thiophene-2-carboxamide] was tested, and the Kd was 4.9 µM. `O=C(Nc1ncc2ccccc2n1)c1cccs1` [D9, N-(quinazolin-2-yl)thiophene-2-carboxamide] gave a Kd of 1.5 µM.
